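GI50 = concentration required for 50% inhibition of growth. TGI: concentration producing complete growth inhibition.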
How the values were obtained:
Test in all cases: DTP human tumour cell line panel, 384-well format
SF-268 CNS = test system: SF-268 CNS
SK-MEL-28 melanoma = test system: SK-MEL-28 melanoma
HS 578T breast = test system: HS 578T breast
COLO 205 colon = test system: COLO 205 colon
DU-145 prostate = test system: DU-145 prostate
HL-60(TB) leukemia = test system: HL-60(TB) leukemia
RPMI-8226 leukemia = test system: RPMI-8226 leukemia
RXF 393 renal = test system: RXF 393 renal
MALME-3M melanoma = test system: MALME-3M melanoma
UACC-257 melanoma = test system: UACC-257 melanoma
786-0 renal = test system: 786-0 renal
HCT-15 colon = test system: HCT-15 colon
MDA-MB-468 breast = test system: MDA-MB-468 breast
NCI-H522 lung = test system: NCI-H522 lung
SK-MEL-5 melanoma = test system: SK-MEL-5 melanoma
SNB-19 CNS = test system: SNB-19 CNS
SNB-75 CNS = test system: SNB-75 CNS
MDA-MB-231 breast = test system: MDA-MB-231 breast
CCRF-CEM leukemia = test system: CCRF-CEM leukemia
M14 melanoma = test system: M14 melanoma
SW-620 colon = test system: SW-620 colon
SF-295 CNS = test system: SF-295 CNS
A549 NSCLC = test system: A549 NSCLC
SN12C renal = test system: SN12C renal
TK-10 renal = test system: TK-10 renal
IGROV1 ovarian = test system: IGROV1 ovarian
OVCAR-3 ovarian = test system: OVCAR-3 ovarian
NCI-H460 NSCLC = test system: NCI-H460 NSCLC
EKVX NSCLC = test system: EKVX NSCLC
UO-31 renal = test system: UO-31 renal
HT29 colon = test system: HT29 colon
NCI-H322M lung = test system: NCI-H322M lung
OVCAR-5 ovarian = test system: OVCAR-5 ovarian
CAKI-1 renal = test system: CAKI-1 renal
KM12 colon = test system: KM12 colon
PC-3 prostate = test system: PC-3 prostate
SK-OV-3 ovarian = test system: SK-OV-3 ovarian
HCC-2998 colon = test system: HCC-2998 colon
OVCAR-4 ovarian = test system: OVCAR-4 ovarian
MOLT-4 leukemia = test system: MOLT-4 leukemia
NCI-H226 lung = test system: NCI-H226 lung
HOP-92 NSCLC = test system: HOP-92 NSCLC
MDA-MB-435 melanoma = test system: MDA-MB-435 melanoma
T-47D breast = test system: T-47D breast
OVCAR-8 ovarian = test system: OVCAR-8 ovarian
K-562 leukemia = test system: K-562 leukemia
ACHN renal = test system: ACHN renal
NCI/ADR-RES ovarian = test system: NCI/ADR-RES ovarian
SF-539 CNS = test system: SF-539 CNS
MCF7 breast = test system: MCF7 breast
NCI-H23 lung = test system: NCI-H23 lung
LOX IMVI melanoma = test system: LOX IMVI melanoma
SR leukemia = test system: SR leukemia
UACC-62 melanoma = test system: UACC-62 melanoma
A498 renal = test system: A498 renal
BT-549 breast = test system: BT-549 breast

COCc1cc(C(=O)Nc2cc([C@H]3CC[C@@H](OC(=O)NC(C)C)C3)[nH]n2)n(C)n1
GI50 (SF-268 CNS): 2.37 µM | TGI (SF-268 CNS): 15.4 µM | GI50 (SK-MEL-28 melanoma): 10.3 µM | TGI (SK-MEL-28 melanoma): 22.8 µM | GI50 (HS 578T breast): 11.4 µM | TGI (HS 578T breast): 29.5 µM | GI50 (COLO 205 colon): 0.975 µM | TGI (COLO 205 colon): 19 µM | GI50 (DU-145 prostate): 3.14 µM | TGI (DU-145 prostate): > 100 µM | GI50 (HL-60(TB) leukemia): 1.52 µM | TGI (HL-60(TB) leukemia): 2.89 µM | GI50 (RPMI-8226 leukemia): 1.84 µM | TGI (RPMI-8226 leukemia): 6.78 µM | GI50 (RXF 393 renal): 5.42 µM | TGI (RXF 393 renal): 23.4 µM | GI50 (MALME-3M melanoma): 12.3 µM | TGI (MALME-3M melanoma): 26.1 µM | GI50 (UACC-257 melanoma): 6.8 µM | TGI (UACC-257 melanoma): 25.3 µM | GI50 ([…]-0 renal): 5.05 µM | TGI (786-0 renal): 64.2 µM | GI50 (HCT-15 colon): 6.45 µM | TGI (HCT-15 colon): 37.4 µM | GI50 (MDA-MB-468 breast): 13.9 µM | TGI (MDA-MB-468 breast): 27 µM | GI50 (NCI-H522 lung): 15.1 µM | TGI (NCI-H522 lung): 31.6 µM | GI50 (SK-MEL-5 melanoma): 0.762 µM | TGI (SK-MEL-5 melanoma): 13.9 µM | GI50 (SNB-19 CNS): 5.67 µM | TGI (SNB-19 CNS): > 100 µM | GI50 (SNB-75 CNS): 8.98 µM | TGI (SNB-75 CNS): 22.3 µM | GI50 (MDA-MB-231 breast): 9.08 µM | TGI (MDA-MB-231 breast): > 100 µM | GI50 (CCRF-CEM leukemia): 2.81 µM | TGI (CCRF-CEM leukemia): 7.24 µM | GI50 (M14 melanoma): 4.82 µM | TGI (M14 melanoma): 18.8 µM | GI50 (SW-620 colon): 2.45 µM | TGI (SW-620 colon): 65.4 µM | GI50 (SF-295 CNS): 10.3 µM | TGI (SF-295 CNS): 79.3 µM | GI50 (A549 NSCLC): 3.03 µM | TGI (A549 NSCLC): > 100 µM | GI50 (SN12C renal): 4.38 µM | TGI (SN12C renal): 23.9 µM | GI50 (TK-10 renal): 14.8 µM | TGI (TK-10 renal): > 100 µM | GI50 (IGROV1 ovarian): 4.47 µM | TGI (IGROV1 ovarian): > 100 µM | GI50 (OVCAR-3 ovarian): 5.24 µM | TGI (OVCAR-3 ovarian): 28.8 µM | GI50 (NCI-H460 NSCLC): 3.07 µM | TGI (NCI-H460 NSCLC): 14.3 µM | GI50 (EKVX NSCLC): 14.9 µM | TGI (EKVX NSCLC): 48.8 µM | GI50 (UO-31 renal): 31.5 µM | TGI (UO-31 renal): > 100 µM | GI50 (HT29 colon): 12.4 µM | TGI (HT29 colon): > 100 µM | GI50 (NCI-H322M lung): 3.8 µM | TGI (NCI-H322M lung): 13 µM | GI50 (OVCAR-5 ovarian): 3.12 µM | TGI (OVCAR-5 ovarian): 9.17 µM | GI50 (CAKI-1 renal): 3.99 µM | TGI (CAKI-1 renal): > 100 µM | GI50 (KM12 colon): 0.571 µM | TGI (KM12 colon): 17.2 µM | GI50 (PC-3 prostate): 6.59 µM | TGI (PC-3 prostate): > 100 µM | GI50 (SK-OV-3 ovarian): 8.29 µM | TGI (SK-OV-3 ovarian): 90.1 µM | GI50 (HCC-2998 colon): 5.15 µM | TGI (HCC-2998 colon): 25.9 µM | GI50 (OVCAR-4 ovarian): 18.3 µM | TGI (OVCAR-4 ovarian): 52.7 µM | GI50 (MOLT-4 leukemia): 4.36 µM | TGI (MOLT-4 leukemia): 12.5 µM | GI50 (NCI-H226 lung): 2.85 µM | TGI (NCI-H226 lung): 51.6 µM | GI50 (HOP-92 NSCLC): 14 µM | TGI (HOP-92 NSCLC): > 100 µM | GI50 (MDA-MB-435 melanoma): 12.5 µM | TGI (MDA-MB-435 melanoma): 84.8 µM | GI50 (T-47D breast): 5.58 µM | TGI (T-47D breast): > 100 µM | GI50 (OVCAR-8 ovarian): 4.64 µM | TGI (OVCAR-8 ovarian): 36.2 µM | GI50 (K-562 leukemia): 13.8 µM | TGI (K-562 leukemia): 65.2 µM | GI50 (ACHN renal): 3.45 µM | TGI (ACHN renal): > 100 µM | GI50 (NCI/ADR-RES ovarian): > 100 µM | TGI (NCI/ADR-RES ovarian): > 100 µM | GI50 (SF-539 CNS): 3.97 µM | TGI (SF-539 CNS): 19.6 µM | GI50 (MCF7 breast): 2.66 µM | TGI (MCF7 breast): 13.4 µM | GI50 (NCI-H23 lung): 2.48 µM | TGI (NCI-H23 lung): 10.1 µM | GI50 (LOX IMVI melanoma): 3.12 µM | TGI (LOX IMVI melanoma): 18.9 µM | GI50 (SR leukemia): 0.557 µM | TGI (SR leukemia): 1.86 µM | GI50 (UACC-62 melanoma): 2.98 µM | TGI (UACC-62 melanoma): 12.8 µM | GI50 (A498 renal): 1.52 µM | TGI (A498 renal): > 100 µM | GI50 (BT-549 breast): 3.38 µM | TGI (BT-549 breast): 20.3 µM
